Series [1] concerns the target Voltage-gated inwardly rectifying potassium channel KCNH2 (Homo sapiens, UniProt Q12809). Description: Inhibition of hERG. The format is toxicity.
Series [2] in a line: Aqueous solubility of the compound in PBS buffer at pH 7.4. The format is physicochemical.
Series [3] is described as follows: Permeability of the compound by PAMPA method. The format is ADME. Conditions: read-out: permeability. Background: PAMPA measures passive passage across an artificial lipid membrane.
Series [4] in a line: Aqueous solubility of the compound in JP1 at pH 1.2. The format is physicochemical. To be noted: JP1, pH 1.2.
Series [5] addresses P-gp (ABCB1) (Homo sapiens, UniProt P08183). The series is described as follows: Substrate activity at P-gp (unknown origin) assessed as efflux ratio. The format is ADME. To be noted: not told.
Series [6] can be described thus: Microsomal stability in human liver microsomes assessed as parent compound remaining measured after 15 mins. Type of series: ADME, Microsome. Conditions: read-out: Stability.
Series [7] deals with Sodium channel protein type 5 subunit alpha (Homo sapiens, UniProt Q14524). Description: Inhibition of Nav1.5 (unknown origin).
The nature of series [8]: Dissociation constant, pKa of the compound. Type of series: physicochemical.

Experimental findings from ChEMBL document CHEMBL5584226, “α-Fluorination of tropane compounds and its impact on physicochemical and ADME properties” (Bioorg Med Chem Lett, 2024) are described below.

Values after ≈ are worked out from the molar mass of the structure shown.

As usually defined, the IC50 is the concentration that gives 50% inhibition. A higher IC50 goes with weaker potency in that assay. The solubility is how much of the substance goes into solution per volume. Low readings indicate little dissolved substance, high ones much dissolved substance. The term efflux ratio denotes a quotient of directional permeabilities that is used to spot active efflux. By pKa is commonly meant the negative logarithm of the acid dissociation constant.

Sequence of P-gp (ABCB1) (P08183 whole entry): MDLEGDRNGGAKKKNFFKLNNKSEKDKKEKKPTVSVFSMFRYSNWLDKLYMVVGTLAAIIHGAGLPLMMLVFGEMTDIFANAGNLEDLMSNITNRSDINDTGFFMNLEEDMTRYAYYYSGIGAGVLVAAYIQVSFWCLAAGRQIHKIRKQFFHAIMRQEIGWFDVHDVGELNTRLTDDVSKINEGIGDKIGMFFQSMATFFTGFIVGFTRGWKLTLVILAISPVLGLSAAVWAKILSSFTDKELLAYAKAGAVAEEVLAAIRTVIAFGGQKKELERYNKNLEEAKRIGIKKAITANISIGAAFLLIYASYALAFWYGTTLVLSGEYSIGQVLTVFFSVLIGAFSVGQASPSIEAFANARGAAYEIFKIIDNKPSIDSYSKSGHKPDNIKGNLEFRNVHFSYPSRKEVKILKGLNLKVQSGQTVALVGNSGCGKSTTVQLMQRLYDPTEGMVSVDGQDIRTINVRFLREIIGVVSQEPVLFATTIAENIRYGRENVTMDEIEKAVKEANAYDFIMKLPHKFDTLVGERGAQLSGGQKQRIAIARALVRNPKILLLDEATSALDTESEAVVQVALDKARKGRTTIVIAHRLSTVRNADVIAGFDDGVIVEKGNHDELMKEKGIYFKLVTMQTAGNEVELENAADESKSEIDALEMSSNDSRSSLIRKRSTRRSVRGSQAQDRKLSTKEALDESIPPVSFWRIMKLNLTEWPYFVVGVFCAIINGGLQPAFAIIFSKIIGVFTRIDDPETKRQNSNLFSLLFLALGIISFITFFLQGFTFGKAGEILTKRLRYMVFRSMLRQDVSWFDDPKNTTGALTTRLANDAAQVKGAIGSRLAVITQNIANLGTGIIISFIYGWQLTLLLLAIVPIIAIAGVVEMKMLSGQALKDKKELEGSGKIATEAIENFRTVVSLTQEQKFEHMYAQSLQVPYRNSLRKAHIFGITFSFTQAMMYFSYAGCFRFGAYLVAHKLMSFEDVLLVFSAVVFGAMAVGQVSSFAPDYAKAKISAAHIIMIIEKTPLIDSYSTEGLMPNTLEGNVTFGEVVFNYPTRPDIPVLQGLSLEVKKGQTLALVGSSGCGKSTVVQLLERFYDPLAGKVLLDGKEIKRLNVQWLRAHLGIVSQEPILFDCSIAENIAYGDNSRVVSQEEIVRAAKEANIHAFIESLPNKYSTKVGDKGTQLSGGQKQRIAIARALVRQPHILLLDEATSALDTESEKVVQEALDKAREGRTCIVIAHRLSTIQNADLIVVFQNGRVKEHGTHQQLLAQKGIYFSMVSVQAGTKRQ
Sequence of Voltage-gated inwardly rectifying potassium channel KCNH2 (Q12809 whole entry): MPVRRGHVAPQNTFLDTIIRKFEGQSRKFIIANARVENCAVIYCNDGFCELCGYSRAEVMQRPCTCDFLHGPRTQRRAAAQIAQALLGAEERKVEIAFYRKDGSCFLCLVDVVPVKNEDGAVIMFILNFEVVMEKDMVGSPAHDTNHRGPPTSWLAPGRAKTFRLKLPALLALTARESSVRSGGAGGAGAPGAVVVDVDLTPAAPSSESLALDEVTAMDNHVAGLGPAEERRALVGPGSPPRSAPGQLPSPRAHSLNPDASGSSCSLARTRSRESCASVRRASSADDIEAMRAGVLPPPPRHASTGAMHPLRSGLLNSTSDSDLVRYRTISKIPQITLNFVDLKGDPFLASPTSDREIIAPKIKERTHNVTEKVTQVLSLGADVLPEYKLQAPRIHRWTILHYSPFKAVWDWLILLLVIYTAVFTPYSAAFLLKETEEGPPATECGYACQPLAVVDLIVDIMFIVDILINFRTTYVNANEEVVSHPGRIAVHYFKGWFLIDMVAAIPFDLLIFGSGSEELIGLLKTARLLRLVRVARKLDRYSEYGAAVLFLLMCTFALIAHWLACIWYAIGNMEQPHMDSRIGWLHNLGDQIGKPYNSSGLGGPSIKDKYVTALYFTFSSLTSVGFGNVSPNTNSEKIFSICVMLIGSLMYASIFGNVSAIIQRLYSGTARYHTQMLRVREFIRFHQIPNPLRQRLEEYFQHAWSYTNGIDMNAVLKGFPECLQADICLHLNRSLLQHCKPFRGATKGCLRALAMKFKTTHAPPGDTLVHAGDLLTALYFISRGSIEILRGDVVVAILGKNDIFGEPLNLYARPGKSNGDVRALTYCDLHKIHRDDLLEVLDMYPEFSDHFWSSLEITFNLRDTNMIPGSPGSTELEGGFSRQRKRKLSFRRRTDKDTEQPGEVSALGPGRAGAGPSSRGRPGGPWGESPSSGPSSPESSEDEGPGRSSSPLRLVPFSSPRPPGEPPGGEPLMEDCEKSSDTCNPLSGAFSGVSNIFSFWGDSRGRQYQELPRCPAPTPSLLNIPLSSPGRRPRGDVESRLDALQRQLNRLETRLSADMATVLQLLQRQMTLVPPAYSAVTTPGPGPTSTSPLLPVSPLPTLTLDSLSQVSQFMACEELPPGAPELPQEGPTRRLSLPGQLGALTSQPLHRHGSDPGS
Sequence of Sodium channel protein type 5 subunit alpha (Q14524 whole entry): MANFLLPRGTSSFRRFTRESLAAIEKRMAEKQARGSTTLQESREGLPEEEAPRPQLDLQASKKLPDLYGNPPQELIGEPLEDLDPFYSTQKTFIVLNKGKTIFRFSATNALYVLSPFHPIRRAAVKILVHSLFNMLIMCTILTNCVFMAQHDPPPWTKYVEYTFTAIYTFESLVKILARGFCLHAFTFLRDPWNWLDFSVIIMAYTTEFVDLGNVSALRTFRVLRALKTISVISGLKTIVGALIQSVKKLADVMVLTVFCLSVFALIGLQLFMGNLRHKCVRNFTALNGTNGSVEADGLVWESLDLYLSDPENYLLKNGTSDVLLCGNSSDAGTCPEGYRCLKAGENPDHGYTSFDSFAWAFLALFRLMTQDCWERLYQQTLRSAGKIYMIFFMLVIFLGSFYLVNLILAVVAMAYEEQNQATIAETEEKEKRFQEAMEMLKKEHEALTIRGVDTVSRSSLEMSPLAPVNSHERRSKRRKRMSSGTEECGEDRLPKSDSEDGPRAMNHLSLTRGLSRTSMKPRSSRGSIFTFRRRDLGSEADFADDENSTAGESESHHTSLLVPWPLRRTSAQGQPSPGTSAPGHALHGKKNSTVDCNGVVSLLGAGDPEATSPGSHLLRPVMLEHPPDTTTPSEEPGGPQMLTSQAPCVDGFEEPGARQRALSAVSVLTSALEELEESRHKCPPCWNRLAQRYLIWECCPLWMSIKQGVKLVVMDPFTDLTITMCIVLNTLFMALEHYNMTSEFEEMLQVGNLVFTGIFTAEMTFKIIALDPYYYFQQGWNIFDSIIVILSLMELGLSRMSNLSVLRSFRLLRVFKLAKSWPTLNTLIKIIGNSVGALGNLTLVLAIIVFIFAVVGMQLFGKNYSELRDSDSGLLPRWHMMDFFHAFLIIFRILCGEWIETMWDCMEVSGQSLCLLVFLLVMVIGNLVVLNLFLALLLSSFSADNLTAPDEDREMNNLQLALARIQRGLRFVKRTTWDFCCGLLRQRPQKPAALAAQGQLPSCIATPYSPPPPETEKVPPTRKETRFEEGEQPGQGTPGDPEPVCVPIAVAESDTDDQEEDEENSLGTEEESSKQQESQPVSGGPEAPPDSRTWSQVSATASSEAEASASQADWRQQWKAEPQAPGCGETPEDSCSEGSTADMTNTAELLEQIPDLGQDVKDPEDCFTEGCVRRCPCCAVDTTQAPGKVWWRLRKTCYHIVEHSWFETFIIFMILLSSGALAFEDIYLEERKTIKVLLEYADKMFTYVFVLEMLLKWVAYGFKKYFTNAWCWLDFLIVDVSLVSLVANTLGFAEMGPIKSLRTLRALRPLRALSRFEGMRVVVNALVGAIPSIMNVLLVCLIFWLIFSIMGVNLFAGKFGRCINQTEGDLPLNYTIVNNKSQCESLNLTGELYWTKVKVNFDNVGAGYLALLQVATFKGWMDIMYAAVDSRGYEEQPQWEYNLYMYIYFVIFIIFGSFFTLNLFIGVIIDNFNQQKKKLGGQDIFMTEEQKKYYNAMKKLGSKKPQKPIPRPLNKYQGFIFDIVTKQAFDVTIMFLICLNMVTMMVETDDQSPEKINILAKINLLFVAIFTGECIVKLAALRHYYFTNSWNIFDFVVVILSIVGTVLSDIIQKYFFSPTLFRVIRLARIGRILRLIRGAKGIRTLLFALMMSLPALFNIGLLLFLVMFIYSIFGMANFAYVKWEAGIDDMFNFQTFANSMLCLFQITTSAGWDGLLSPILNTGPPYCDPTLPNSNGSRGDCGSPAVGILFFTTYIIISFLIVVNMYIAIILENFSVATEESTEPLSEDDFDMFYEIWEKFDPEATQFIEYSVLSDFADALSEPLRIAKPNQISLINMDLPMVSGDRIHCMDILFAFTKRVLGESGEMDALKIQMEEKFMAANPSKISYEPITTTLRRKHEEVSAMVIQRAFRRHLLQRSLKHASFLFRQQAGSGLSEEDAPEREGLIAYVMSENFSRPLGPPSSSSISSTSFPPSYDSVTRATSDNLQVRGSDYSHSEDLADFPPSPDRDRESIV

`O=c1n(CC(O)CN2C3CCC2CC(OCc2ccccc2F)C3)nc2n1CCC2` (stereo not drawn): the figures for the half-maximal inhibitory concentration (IC50) in series [1] and in series [7] were 19.7 µM and 12.9 µM, respectively. Also, the solubility was 94 µM (≈ 39.2 µg/mL) in series [2] and at least 100 µM in series [4]. Also, in series [3], the Papp was found to be 0.46 ×10⁻⁶ cm/s. In addition, the efflux ratio in series [5] was found to be 9.16. The remaining at 0.25 h in series [6] came to 99.8%.

For `O=c1n(CCCN2C3CCC2CC(OCc2ccccc2F)C3)nc2n1CCC2` (stereo not drawn), the results for the half-inhibitory concentration (IC50) in series [1] and in series [7] were 5.2 µM and 5.9 µM, respectively. The solubility in series [2] and in series [4] was at least 100 µM each time. The Papp in series [3] came to 1.62 ×10⁻⁶ cm/s. The efflux ratio in series [5] worked out at 19.4. In addition, the remaining at 0.25 h in series [6] was determined as 95.8%.

`O=c1n(CC(O)CN2C3CCC2CC(OCc2ccccc2F)C3)nc2ccccn12` (stereo not drawn): the results for the IC50 in series [1] and in series [7] were 1.2 µM and 11.9 µM, respectively. In addition, the solubility in series [2] is 95 µM (≈ 40.5 µg/mL); in series [4] it was at least 100 µM. The Papp in series [3] came out at 2.16 ×10⁻⁶ cm/s. Besides, the efflux ratio in series [5] was 6.36. In addition, the remaining at 0.25 h in series [6] was 82%.

For the compound `O=c1n(CCCN2C3CCC2(F)CC(COc2ccccc2F)C3)nc2ccccn12` (racemic), the half-maximal inhibitory concentration (IC50) in series [1] and in series [7] was above 30 µM in each case. Also, the solubility is 61 µM (≈ 26.1 µg/mL) in series [2] and at least 100 µM in series [4]. Also, the Papp in series [3] was found to be 11.1 ×10⁻⁶ cm/s. Moreover, the efflux ratio in series [5] worked out at 1.34. Besides, the remaining at 0.25 h in series [6] came out at 34.7%.

In the case of `O=c1n(CCCN2C3CCC2CC(COc2ccccc2F)C3)nc2ccccn12` (stereo not drawn), the values for the IC50 in series [1] and in series [7] were 0.07 µM and 6 µM, respectively. The values for the solubility in series [2] and in series [4] were 95 µM (≈ 39 µg/mL) and at least 100 µM, respectively. The Papp in series [3] is 4.86 ×10⁻⁶ cm/s. The efflux ratio in series [5] stood at 3.07. Moreover, the remaining at 0.25 h in series [6] is 45.6%.

As to `O=c1n(CCCN2C3CCC2(F)CC(OCc2ccccc2F)C3)nc2n1CCC2` (stereo not drawn), the concentration for half-maximal inhibition (IC50) in series [1] and in series [7] was above 30 µM in each case. Further, the values for the solubility in series [2] and in series [4] were 96 µM (≈ 40.2 µg/mL) and at least 100 µM, respectively. For the same compound, the Papp in series [3] worked out at 7.78 ×10⁻⁶ cm/s. Besides, in series [5], the efflux ratio is 1.39. The remaining at 0.25 h in series [6] amounted to 31.8%.

Regarding `O=c1n(CCCN2C3CCC2(F)CC(OCc2ccccc2F)C3)nc2ccccn12` (stereo not drawn), the IC50 was 7.6 µM in series [1] and above 30 µM in series [7]. In addition, the solubility was 73 µM (≈ 31.3 µg/mL) in series [2] and at least 100 µM in series [4]. This compound also yielded a pKa in series [8] of 5.4. The Papp in series [3] was 10.6 ×10⁻⁶ cm/s. For the same compound, the efflux ratio in series [5] is 0.96. For the same compound, the remaining at 0.25 h in series [6] was 10.7%.

For the compound `O=c1n(CC(F)CN2C3CCC2CC(OCc2ccccc2F)C3)nc2n1CCC2` (stereo not drawn), the 50% inhibitory concentration (IC50) came to 22.2 µM in series [1] and 13.4 µM in series [7]. The solubility in series [2] turned out to be 82 µM (≈ 34.3 µg/mL); in series [4] it was 79 µM (≈ 33.1 µg/mL). The Papp in series [3] is 4.44 ×10⁻⁶ cm/s. Besides, in series [5], the efflux ratio was found to be 2.52. The remaining at 0.25 h in series [6] is 92.3%.

On to `O=c1n(CC(F)CN2C3CCC2CC(OCc2ccccc2F)C3)nc2ccccn12` (stereo not drawn), for which the figures for the 50% inhibitory concentration (IC50) in series [1] and in series [7] were 1.8 µM and 17.8 µM, respectively. The solubility is 82 µM (≈ 35.1 µg/mL) in series [2] and at least 100 µM in series [4]. Also, in series [8], the pKa turned out to be 8.1. Further, in series [3], the Papp was found to be 10.6 ×10⁻⁶ cm/s. Also, the efflux ratio in series [5] stood at 1.27. In addition, in series [6], the remaining at 0.25 h was determined as 66.9%.

As to `O=c1n(CCCN2C3CCC2CC(OCc2ccccc2F)C3)nc2ccccn12` (stereo not drawn), the figures for the IC50 in series [1] and in series [7] were 0.11 µM and 3 µM, respectively. Besides, the results for the solubility in series [2] and in series [4] were 99 µM (≈ 40.6 µg/mL) and at least 100 µM, respectively. Also, the pKa in series [8] amounted to 8.7. The Papp in series [3] came to 4.93 ×10⁻⁶ cm/s. In series [5], the efflux ratio stood at 3.39. Moreover, the remaining at 0.25 h in series [6] was 70.9%.
